Biological target: Recombinant human HSD17B13 (Homo sapiens (Human), UniProt Q7Z5P4)
Assay: HSD17B13 rapid-fire mass spectrometry assay (RF/MS assay)
Format: biochemical
Conditions: inhibition of HSD17B13; LTB4 10 μM, NAD+ 0.5 mM, RT 3 h; IC50 ranges A-E
Method in brief: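 Sf9-expressed human HSD17B13 (80 nM) with 10 μM LTB4 and 0.5 mM NAD+, incubated with compound (0–100 μM) for 3 h at RT in Tris pH 7.5/BSA/Tween-20. After formic acid quench, LTB4 conversion to 12-oxo-LTB4 measured by RapidFire MS/MS. IC50 from normalised residual activity, duplicates.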

Sequence of Recombinant human HSD17B13 (Q7Z5P4 20-300): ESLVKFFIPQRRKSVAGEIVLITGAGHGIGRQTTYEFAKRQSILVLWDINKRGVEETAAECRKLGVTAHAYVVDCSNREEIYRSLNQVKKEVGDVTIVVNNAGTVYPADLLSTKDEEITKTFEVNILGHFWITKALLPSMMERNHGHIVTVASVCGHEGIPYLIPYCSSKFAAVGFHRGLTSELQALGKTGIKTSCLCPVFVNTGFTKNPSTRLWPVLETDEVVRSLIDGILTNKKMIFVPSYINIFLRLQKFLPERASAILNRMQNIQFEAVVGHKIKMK

Row | IC50 [µM] | SMILES
1 | < 0.1 | COc1cc(C(=O)O)c(F)cc1NS(=O)(=O)c1coc(-c2ccc([C@H]3CC[C@H](C(C)C)CC3)cc2C(F)(F)F)n1 [Example 674]
2 | 0.1 to 0.5 | O=C(O)c1ccc(NS(=O)(=O)c2cnc(-c3ccccc3)s2)c(O)c1 [Example 160]
3 | < 0.1 | COc1cc(C(=O)O)ccc1NS(=O)(=O)c1cnc(-c2ccc(C3CCCCC3)cc2)s1 [Example 385]
4 | < 0.1 | COc1cc(C(=O)O)c(F)cc1NS(=O)(=O)c1coc(-c2ccc(C3=CCC4(CC3)OCCO4)cc2)n1 [Example 617]
5 | 0.1 to 0.5 | CCCCC[C@H]1CC[C@H](c2ccc(-c3nc(S(=O)(=O)Nc4cc(F)c(C(=O)O)cc4OC)cs3)c(F)c2)CC1 [Example 759]
6 | 1 to 100 | COc1cc(C(=O)O)ccc1NS(=O)(=O)c1ccc(-c2ccc(C3CCCCC3)cc2)cn1 [Example 340]
7 | 1 to 100 | COc1cc(C(=O)O)ccc1NS(=O)(=O)c1cnn(-c2ccc(F)cc2)c1C [Example 80]
8 | 0.1 to 0.5 | COc1cc(C(=O)O)ccc1NS(=O)(=O)c1csc(-c2ccc(C3CCCCC3)cc2)n1 [Example 281, 4-((2-(4-cyclohexylphenyl)thiazole)-4-sulfonamido)-3-methoxybenzoic acid]
9 | 0.1 to 0.5 | COc1c(NS(=O)(=O)c2cnc(-c3ccc(F)cc3)s2)ccc(C(=O)O)c1F [Example 59]
10 | 0.1 to 0.5 | COc1cc(C(=O)O)ccc1NS(=O)(=O)N1Cc2nc(C#CC3CCCC3)sc2C1 [Example 345]
11 | < 0.1 | COc1cc(C(=O)O)c(F)cc1NS(=O)(=O)c1ncc(-c2ccc(F)cc2)s1 [Example 614]
12 | < 0.1 | O=C(O)c1ccc(NS(=O)(=O)c2cnc(-c3ccc(F)cc3)s2)c(O)c1 [Example 40, 4-((2-(4-fluorophenyl)thiazole)-5-sulfonamido)-3-hydroxybenzoic acid]
13 | 1 to 100 | COc1cc(C(=O)O)ccc1NS(=O)(=O)c1ccc2occc2c1 [Example 139]
14 | 0.1 to 0.5 | COc1cc(C(=O)O)c(F)cc1NS(=O)(=O)c1csc(-c2ccc(C3=CCC4(CC3)CC4)cc2)n1 [Example 758]
15 | < 0.1 | COc1cc(C(=O)O)c(F)cc1NS(=O)(=O)c1csc(-c2ccc(C3CCC(C)(C)CC3)cc2C)n1 [Example 559]
16 | 1 to 100 | COc1cc(C(=O)O)ccc1NS(=O)(=O)N1CCN(c2ccccc2)CC1 [Example 312]
17 | 0.1 to 0.5 | COc1cc(C(=O)O)c(F)cc1NS(=O)(=O)c1csc(-c2ccc(-c3ccc4cnccc4c3)cc2)n1 [Example 654]
18 | < 0.1 | COc1cc(C(=O)O)c(F)cc1NS(=O)(=O)c1cnc(-c2ccc(C3=CCC(C(C)(C)C)CC3)cc2)s1 (stereo not shown) [Example 717]
19 | 0.1 to 0.5 | COc1cc(C(=O)O)c(F)cc1NS(=O)(=O)c1coc(-c2ccc([C@H]3CC[C@@H](C(C)C)CC3)cc2C(F)(F)F)n1 [Example 673]
20 | 0.1 to 0.5 | COc1cc(C(=O)O)ccc1NS(=O)(=O)c1cnc(-c2ccc(C3=CCC(c4ccccc4)CC3)cc2)s1 (stereo not shown) [Example 451, 3-methoxy-4-((2-(2′,3′,4′,5′-tetrahydro-[1,1′:4′,1″-terphenyl]-4-yl)thiazole)-5-sulfonamido)benzoic acid]
21 | 1 to 100 | O=C(O)c1ccc2nc(NS(=O)(=O)c3cnc(-c4ccc(F)cc4)s3)sc2c1 [Example 94]
22 | > 100 | O=C(O)C1CCCN(S(=O)(=O)c2cnc(-c3ccc(F)cc3)s2)C1 (stereo not shown) [Example 65]
23 | 0.1 to 0.5 | COc1cc(C(=O)O)c(F)cc1NS(=O)(=O)c1nc(-c2ccc(C3CCC(C)(C)CC3)cc2)sc1C [Example 666]

Row | IC50 [µM] | SMILES
24 | 0.1 to 0.5 | COc1cc(C(=O)O)ccc1NS(=O)(=O)c1cnc(-c2ccc(C3CCC(C)(C)CC3)cc2)s1 [Example 453]
25 | 0.1 to 0.5 | COc1cc(C(=O)O)c(F)cc1NS(=O)(=O)c1ccn(-c2ccc(C3CCCCC3)cc2)n1 [Example 689]
26 | < 0.1 | CC[C@H]1CC[C@H](c2ccc(-c3nc(S(=O)(=O)Nc4cc(F)c(C(=O)O)cc4OC)cs3)cc2)CC1 [Example 723]
27 | < 0.1 | COc1cc(C(=O)O)c(F)cc1NS(=O)(=O)c1csc(-c2ccc([C@H]3CC[C@@H](C(C)C)CC3)c(F)c2C)n1 [Example 805]
28 | 1 to 100 | COc1cc(C(=O)O)ccc1NS(=O)(=O)c1csc(-c2ccn(C)n2)n1 [Example 101]
29 | 1 to 100 | COc1cc(C(=O)O)ccc1NS(=O)(=O)N1CCC(c2ccccn2)CC1 [Example 311]
30 | < 0.1 | COc1cc(C(=O)O)c(F)cc1NS(=O)(=O)c1csc(-c2ccc([C@H]3CC[C@@H](C(C)(C)C)CC3)c(OC(C)C)c2F)n1 [Example 597]
31 | 0.1 to 0.5 | COc1cc(C(=O)O)c(F)cc1NS(=O)(=O)c1ccn(-c2ccc([C@H]3CC[C@H](C(F)(F)F)CC3)cc2)n1 [Example 692]
32 | 0.1 to 0.5 | COc1cc(C(=O)O)c(F)cc1NS(=O)(=O)c1csc(-c2cc(F)c(C3=CCC(C)(C)CC3)c(F)c2)n1 [Example 516]
33 | > 100 | O=C(O)C1CCC(NS(=O)(=O)c2cnc(-c3ccc(F)cc3)s2)CC1 (stereo not shown) [Example 66]
34 | < 0.1 | CC[C@H]1CC[C@H](c2ccc(-c3nc(S(=O)(=O)Nc4ccc(C(=O)O)cc4OC)cs3)cc2)CC1 [Example 352]
35 | < 0.1 | COc1cc(C(=O)O)c(F)cc1NS(=O)(=O)c1csc(-c2ccc(NC3CCC(C)(C)CC3)cc2)n1 [Example 631]
36 | 0.1 to 0.5 | COc1cc(C(=O)O)c(F)cc1NS(=O)(=O)c1csc(-c2ccc(-c3ccc(C4=CCC(C(C)C)CC4)cc3C(F)(F)F)cc2C(F)(F)F)n1 (stereo not shown) [Example 742]
37 | 0.1 to 0.5 | COc1cc(C(=O)O)c(F)cc1NS(=O)(=O)c1cnc(-c2ccc(-c3ccc(C45CC6C[C@H](C4)C[C@H](C6)C5)cc3)cc2)s1 [Example 766]
38 | < 0.1 | COc1cc(C(=O)O)c(F)cc1NS(=O)(=O)c1csc(-c2ccc(C3CCC(C)(C)CC3)c(OC)c2F)n1 [Example 548]
39 | < 0.1 | COc1cc(C(=O)O)c(F)cc1NS(=O)(=O)c1csc(-c2ccc(C3CCC(C)(C)CC3)cc2F)n1 [Example 511]
40 | 1 to 100 | CCC[C@H]1CC[C@H](C2CC=C(c3ccc(-c4ncc(S(=O)(=O)Nc5ccc(C(=O)O)cc5OC)s4)cc3)CC2)CC1 (stereo partly shown) [Example 709]
41 | < 0.1 | COc1cc(C(=O)O)ccc1NS(=O)(=O)c1csc(-c2ccc(C3CCC(C(C)(C)C)CC3)cc2)n1 (stereo not shown) [Example 353, 4-((2-(4-(4-(tert-butyl)cyclohexyl)phenyl)thiazole)-4-sulfonamido)-3-methoxybenzoic acid]
42 | 0.1 to 0.5 | CC[C@H]1CC[C@H](c2ccc(-c3nc(S(=O)(=O)Nc4ccc(C(=O)O)cc4OC)co3)cc2)CC1 [Example 488]
43 | 0.1 to 0.5 | COc1cc(C(=O)O)c(F)cc1NS(=O)(=O)c1csc(-c2ccc(-c3cncc(F)c3)cc2)n1 [Example 655]
44 | 1 to 100 | COc1cc(C(=O)O)ccc1NS(=O)(=O)c1csc(N2CCN(c3ccc(OC(F)(F)F)cc3)C(=O)C2)n1 [Example 266]
45 | < 0.1 | COc1cc(C(=O)O)ccc1NS(=O)(=O)c1csc(C#Cc2ccc(F)c(OC(F)(F)F)c2)n1 [Example 393, 4-((2-((4-fluoro-3-(trifluoromethoxy)phenyl)ethynyl)thiazole)-4-sulfonamido)-3-methoxybenzoic acid]

Row | SMILES | IC50 [µM]
46 | CCOP(=O)(OCC)c1ccc(NS(=O)(=O)c2csc(C#Cc3cccc(OC(F)(F)F)c3)n2)c(OC)c1 [Example 392, diethyl (3-methoxy-4-((2-((3-(trifluoromethoxy)phenyl)ethynyl)thiazole)-4-sulfonamido)phenyl)phosphonate] | 1 to 100

Source: patent publication US12384753B2, “17-beta-hydroxysteroid dehydrogenase type 13 inhibitors and methods of use thereof” (Enanta Pharmaceuticals, Inc., priority 2021, dated 2025)
